Measured values taken from PMC4096598 (PLoS ONE, 2014).
Several values for one entry are separate records, joined by “and”; a condition that tells them apart may be missing. Equal entries are not always repeated. Where two headings read alike, the source gives them in different places. Ends that are not written are not given here.

Key:
[1] = system: Mycobacterium tuberculosis MDR (clinically isolated multidrug resistant strain); details: MDR (clinically isolated multidrug resistant strain, 24 h)
[2] = not given; remark: listed apart in the source
[3] = system: Mycobacterium tuberculosis MDR (clinically isolated multidrug resistant strain); details: literature value ref Rastogi, et al., 1996 [55]; cited from earlier work

FWGALAKGALKLIGSLFSSFSKKD [Pin2 [G]]
MIC Mycobacterium tuberculosis MDR [1]: 18.7 µM
maximum alpha-helical structure: 60%
alpha-helical structure in absence of TFE [2]: 20%

FWGLKGLKGPGKFSKKL [Pin2 [17]]
MIC Mycobacterium tuberculosis MDR [1]: 14.8 ± 5.2 µM

CO[C@H]1/C=C/O[C@@]2(C)Oc3c(C)c(O)c4c(O)c(c(/C=N/N5CCN(C)CC5)c(O)c4c3C2=O)NC(=O)/C(C)=C\C=C\[C@H](C)[C@H](O)[C@@H](C)[C@@H](O)[C@@H](C)[C@H](OC(C)=O)[C@@H]1C [Rifampicin]
MIC Mycobacterium tuberculosis MDR [3]: 32 µg/mL and 38.9 µM

FWGALAKGALKLIPSLFSSFSKKD [Pin2, Pandinin 2, reference compound]
MIC Mycobacterium tuberculosis MDR [1]: 33.1 µM

FWGLKGLKKFSKKL [Pin2 [14]]
MIC Mycobacterium tuberculosis MDR [1]: 6 ± 1.8 µM

FWGALAKGALKLIGPGSLFSSFSKKD [Pin2 [GPG]]
maximum alpha-helical structure: 60%

CC[C@@H](CO)NCCN[C@@H](CC)CO [Ethambutol]
MIC Mycobacterium tuberculosis MDR [3]: 20 µg/mL and 97 µM
